{"source": "patent US20130310352A1", "about": "“DEXAMETHASONE COMBINATION THERAPY” (priority 2010, published 2013)", "assay_type_in_all_cases": "cell-based, human", "key": {"[1]": {"tested_on": "MM cells ARP1, MM.1S and MM.1R", "assay": "Low-dose single agents, apoptosis", "settings": "40 μg/ml dexamethasone alone, 1 day", "method": "Compound A-induced cell apoptosis was detected by Annexin V binding assay as previously described (Zheng Y, Cai Z, Wang S, et al. Macrophages are an abundant component of myeloma microenvironment and protect myeloma cells from chemotherapy drug-induced apoptosis. Blood. 2009; 114 (17):3625-3628). Briefly, MM cells were cultured in 24-well plates and treated with 0 to 1 mM final concentrations of compound A for 24 or 72 hours. The cells were washed twice with cold PBS and resuspended in Annexin V binding buffer (Invitrogen). MM cells were stained with FITC-conjugated Annexin V and propidium iodide (PI) for 15 min at room temperature. Apoptotic cells were determined as Annexin V positive cells.\nNext, the experiment was extended to other MM cell lines, and they were treated with low compound A (1 μM) and dexamethasone (40 μg/ml).\nARP1 cells were treated with 10 μM compound A (BK), 15 nM melphalan (Me), 40 μg/ml dexamethasone (De), 100 μM lenalidomide (Le), 10 μM Bortizomib (BT), or their combinations for 1 day. The cell apoptosis were measured as described. […] Cell apoptosis was measured. […] Same MM cell lines were treated with compound A for 1 day and cell growth were measured by MTS. […] Cell apoptosis were measured by annexin V staining. […] Cells apoptosis rates were measured by annxin V staining. […]"}, "MM.1S cells [2]": {"tested_on": "MM.1S cells", "assay": "Apoptosis with or without IL-6 addition (positive control)", "settings": "40 μg/ml dexamethasone, rhIL-6", "description": "IL-6 is an important survival cytokine for MM (Klein B, Zhang X G, Jourdan M, et al. Interleukin-6 is the central tumor growth factor in vitro and in vivo in multiple myeloma. Eur Cytokine Netw. 1990; 1 (4):193-201; Gado K, Domjan G, Hegyesi H, Falus A. Role of INTERLEUKIN-6 in the pathogenesis of multiple myeloma. Cell Biol Int. 2000; 24 (4):195-209). […] For this purpose, different MM cell lines ARP1, MM.1S and MM.1R were cultured with or without recombinant hIL-6 (final concentration […]) and treated with or without 10 μM compound A for 2 days. As a positive control, MM.1S cells were treated with 40 μg/ml of dexamethasone with or without hIL-6 addition for the same period of time.\n(§1) MM cell lines ARP1, MM.1S and MM.1R were cultured with 10 μM compound A for 3 days. rhIL-6 were added to final concentration of 5 ng/ml. As a positive control, MM.1S cells were treated with 40 μg/ml dexamethasone in the presence of 5 ng/ml of rhIL6 for the same time. Cells apoptosis rate was measured by annexin V staining. (B). Same MM cells were co-cultured with or without MM BMSC, and treated with 10 μM of compound A for 1 day. As a positive control, MM.1S cells were cocultured with or without BMSC and treated with 40 μg/ml dexamethasone for 1 day. CD138+ MM cells apoptosis rate was measured by Annexin V staining."}, "MM.1S cells [3]": {"tested_on": "MM.1S cells", "assay": "Apoptosis in coculture with BMSCs (positive control)", "settings": "40 μg/ml dexamethasone, 24 hours, BMSC coculture", "description": "For this purpose, BMSCs isolated from MM patient were cocultured with MM cell lines ARP1, MM.1S and MM.1R. The cells were treated with or without 10 μM of compound A for 24 hours. As a positive control, MM.1S cells were cocultured with or without BMSC and treated with or without 40 μg/ml of dexamethasone for 24 hours. After treatment, the MM cells were identified as CD138+ cells by APC-CD138 staining.\nas §1"}}, "data": [{"smiles": "C[C@@H]1C[C@H]2[C@@H]3CCC4=CC(=O)C=C[C@]4(C)[C@@]3(F)[C@@H](O)C[C@]2(C)[C@@]1(O)C(=O)CO", "note": "[dexamethasone, (8S,9R,10S,11S,13S,14S,16R,17R)-9-Fluoro-11,17-dihydroxy-17-(2-hydroxyacetyl)-10,13,16-trimethyl-6,7,8,9,10,11,12,13,14,15,16,17-dodecahydro-3H-cyclopenta[a]phenanthren-3-one]", "values": [{"measurement": "cytotoxic effect of low dose alone", "setting": "[1]", "result": "only limited cytotoxic effect"}, {"measurement": "effect of IL6 addition under dexamethasone treatment", "setting": "MM.1S cells [2]", "result": "promoted MM.1S cells survival"}, {"measurement": "effect of BMSCs on dexamethasone induced cell apoptosis", "setting": "MM.1S cells [3]", "result": "protected MM.1S cells"}]}]}
